Consider 1 compound from article PMC12903969, “Discovery of a Novel and Potent Kir4.1 Inhibitor as a Safe and Rapid‐Onset Antidepressant Agent in Mice” (Advanced Science, 2025).

The target in one data set is T1, Kir4.2 (Homo sapiens, UniProt Q99712).
T1 construct: host or cells: CHO-K1
T1 sequence (Q99712 1-375): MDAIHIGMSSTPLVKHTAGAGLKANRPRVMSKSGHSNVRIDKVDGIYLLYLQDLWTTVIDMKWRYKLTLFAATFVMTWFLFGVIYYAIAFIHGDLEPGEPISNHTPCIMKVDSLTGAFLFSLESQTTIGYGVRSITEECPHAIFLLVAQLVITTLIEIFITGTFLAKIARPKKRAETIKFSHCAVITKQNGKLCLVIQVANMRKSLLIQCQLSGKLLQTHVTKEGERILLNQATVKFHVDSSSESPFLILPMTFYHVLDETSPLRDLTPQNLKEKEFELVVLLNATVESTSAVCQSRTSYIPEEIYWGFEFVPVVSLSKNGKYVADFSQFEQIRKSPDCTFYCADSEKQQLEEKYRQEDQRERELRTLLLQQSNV
Description: Whole-cell patch clamp, Kir4.2. The format is cell-based. How it is done: Plasmids encoding WT human potassium channels Kir1.1, Kir2.1, Kir2.2, Kir4.1, and Kir4.2 were obtained from the Beijing Genomics Institute. All point mutations were constructed using the QuickChange II Site‐Directed Mutagenesis Kit (Stratagene) and subsequently verified by sequencing.
CHO‐K1 cells were maintained in DMEM/F12 growth medium containing 10% fetal bovine serum. Plasmids encoding the target genes (3600 ng) and enhanced green fluorescent protein (400 ng) were cotransfected into cells using Lipofectamine 2000 (Invitrogen) in accordance with the manufacturer's instructions. Cells were seeded onto poly‐d‐lysine (PDL)‐coated glass coverslips 1 h prior to electrophysiological recordings. All cells were cultured under standard conditions of 5% CO2 at 37 °C.
Whole‐cell patch‐clamp recordings were obtained either in transiently transfected CHO‐K1 cells or in primary cultured astrocytes at room temperature using standard patch‐clamp techniques with an Axopatch‐700B amplifier (Axon Instruments). The signals were filtered at 2 kHz and sampled at 20 kHz using the Digidata 1440A interface (Axon Instruments). The resistance of borosilicate glass pipettes was typically 2–4 MΩ when filled with the internal solution. Drug application was facilitated using a BPS perfusion system (ALA Scientific Instruments). Macroscopic currents generated by expressed potassium channels were recorded under the voltage‐clamp conditions with an internal pipette solution composed of (in mM): 140 KCl, 5 NaCl, 1 CaCl2, 1 MgCl2, 10 HEPES, and 10 EGTA, pH 7.2 adjusted with KOH. The external solution contained (in mM): 140 NaCl, 5 KCl, 2 CaCl2, 1 MgCl2, 10 glucose, and 10 HEPES, pH 7.4 adjusted with NaOH. Currents were elicited with a hyperpolarized voltage at −120 mV from the holding potential of −80 mV, followed by a ramp voltage depolarizing to +50 mV. Astrocytic resting membrane potentials were recorded under current‐clamp conditions (I = 0 pA) using standard internal and external solutions, determined immediately after achieving whole‐cell mode.
(The patch-clamp technique gives a direct electrical read-out from membranes.)

Data set [1] relates to MDA-MB-468 breast cancer cells. The experiment in a line: Cytotoxicity test (CCK-8). Type of data set: cell-based. The following applies: Homo sapiens, MDA-MB-468, 48 h, CCK-8, 48 h; read-out: IC50 against MDA-MB-468 breast cancer cells. In a few lines: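 Cells seeded at 12,000/well in L15 for 24 h, then exposed 48 h to compounds at 0.41-100.00 µM (DMSO <0.4%). Viability by 10% CCK-8, 2 h at 37 °C, absorbance 450 nm, expressed as percent of control.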

The next data set concerns OBX C57BL/6J mice. Description: Olfactory bulbectomy (OBX) model, open field test. The format is in vivo. The conditions noted are these: 30 mg kg−1, within 1 h. An excerpt:
Male C57BL/6J mice (8–12 weeks old) were anesthetized by intraperitoneal injection of tiletamine‐zolazepam‐xylazine. Following confirmation of anesthesia, a midline scalp incision was made to expose the skull, and the bregma was identified as the anatomical reference point. Using a stereotaxic frame (Stoelting), bilateral olfactory bulbs (4 mm anterior to the bregma) were aspirated through a 1‐mm burr hole drilled with a dental drill. Hemostatic sponges were applied to the burr holes, and the incision was closed with 5‐0 silk sutures. The sham‐operated controls underwent identical procedures without bulb aspiration. Prophylactic antibiotic therapy (25% ampicillin, […], i.p.) was administered daily for three consecutive days post‐surgery. The animals were monitored during a 14‐day recovery period prior to behavioral assessments. After euthanasia, successful bulbectomy was verified by gross anatomical inspection, and habenular tissues were dissected on ice for subsequent molecular analyses.
This test was used to assess anxiety‐related behaviors in the mice. C57BL/6J mice were individually habituated to a 40 × 40 × 40 cm^3 open field arena under dim light for […]. Locomotor activity during the final 5 min was digitally recorded (30 fps) and analyzed using Tracking Master (Future Life Science (Shanghai) Co., Ltd., Shanghai, China). […]

A further data set concerns C57BL/6J mice. The experiment in a line: Open field test (OFT) after chronic administration. The format is in vivo. The following applies: chronic 10 mg kg−1 per day. On the procedure: This test was used to assess anxiety‐related behaviors in the mice. C57BL/6J mice were individually habituated to a 40 × 40 × 40 cm^3 open field arena under dim light for […]. Locomotor activity during the final 5 min was digitally recorded (30 fps) and analyzed using Tracking Master (Future Life Science (Shanghai) Co., Ltd., Shanghai, China). The primary endpoints included the total ambulatory distance (cm) and center‐zone exploration frequency (20 × 20 cm^2 central area).

The test system of data set [2] is mice. The experiment in a line: Y-maze. Type of data set: in vivo. The following applies: chronic 10 mg kg−1 per day. On the procedure: This test was designed to evaluate spatial working memory. Briefly, mice were individually placed in a symmetrical Y‐maze and allowed to explore for 8 min. Entries were counted only when both hind paws crossed the arm threshold. Correct spatial alternation was defined as an entry into all three arms in an uninterrupted sequence (e.g., ABC, BCA or CAB each representing one alternation). The alternation percentage was derived as: [correct alternations/(total entries–2)] × 100%. After each session, the walls and floor of the maze were wiped with 75% ethanol and allowed to dry before the next animal was tested.

In data set [3] the test system is mice. The experiment in a line: Treadmill test (TT). The format is in vivo. The conditions noted are these: chronic 10 mg kg−1 per day. How it is done:
This test was designed to quantify locomotor endurance in rodents. The time (300 s) and speed (maximum: 30 rpm) parameters for the treadmill were set using a digital panel and the mice were placed in lanes. Gentle electrical probes (0.3 mA) served as motivational stimuli. Total distance traveled was automatically recorded using rotary encoder integration.

In data set [4] the test system is mice. Description: Hippocampal inflammatory cytokines (IL-6, TNF-α) after 14-day administration. The format is in vivo. On the set-up: IL-6 / TNF-α: unit not given here. The following applies: for IL-6 / TNF-α: hippocampus, 14-day administration, individual animals.

Several values for one entry are separate records, joined by “and”; a condition that tells them apart may be missing. Equal values may be shown once.

For orientation: inhibition means the drop in the measured response relative to a control, in per cent. One may read the IC50 as the concentration that gives 50% inhibition. On Kir4.2 (3 µM, mean ± SEM), `c1ccc2c(c1)oc1ccc(Nc3ccnc(NCCCN4CCOCC4)n3)cc12` [JX3212, N^4-(dibenzo[b,d]furan-2-yl)-N^2-(3-morpholinopropyl)pyrimidine-2,4-diamine] returned a Kir4.2 blockade of 86.57 ± 10.51%. Further, at Kir4.2 (JX3212 3 µM (Fig 2A)), the “Kir isoforms: Kir4.2 inhibition, single recordings” value was 93.8526 and 74.5275. Moreover, the inhibition at 3 µM at Kir4.2 (JX3212 3 µM (Fig 2A), read-out: Kir isoforms: Kir4.2 inhibition, single recordings) is 91.3%. The IC50 in data set [1] came to 13.7 ± 0.61 µM. Moreover, in the data set on OBX C57BL/6J mice, the “OBX: percentage of distance traveled in the center (in words)” value was “increased percentage of distance traveled in the center” and the “OBX: total distance traveled (in words)” value is reported as “did not affect the distance traveled”. In the data set on C57BL/6J mice, the “OFT total and central distance traveled (in words)” value is reported as “no pronounced differences”. Also, in the data set on mice [2], the “Y-maze alternation percentage vs vehicle (in words)” value is “showed no effects”. Moreover, the “treadmill running distance vs vehicle (in words)” value in the data set with mice [3] is recorded as “showed no significant effects”. Besides, in the data set with mice [4] (3/10 mg kg−1 for 14 days), the “hippocampal interleukin-6 level (in words)” value was “did not elevate” and the “hippocampal tumor necrosis factor-alpha level (in words)” value is listed as “did not elevate”. In the data set with mice [4] (3 mg/kg), the IL-6 is 45.0571 and 32.8331 and 24.8073 and 32.2935 and 22.1265 and 25.6335 and 36.1041 and 30.8941 and 28.8202 and 44.6187 and 40.1844 and 35.7837 and 22.7841 and 20.9462 and 42.3088; the TNF-α was 465.065 and 545.129 and 550.438 and 437.245 and 389.037 and 473.135 and 223.18 and 189.621 and 460.606 and 247.598 and 569.127 and 488.638 and 325.113 and 294.957. In the data set on mice [4] (10 mg/kg), the IL-6 is 35.0924 and 32.8836 and 20.727 and 32.5464 and 25.9876 and 35.1767 and 33.4906 and 33.3389 and 29.4778 and 46.0519 and 38.6332 and 35.1936 and 20.9968 and 23.4416 and 42.3425; the TNF-α is 489.276 and 552.137 and 604.805 and 420.68 and 480.356 and 484.816 and 216.59 and 243.988 and 478.02 and 253.544 and 531.962 and 451.261 and 319.804 and 494.16.
